From patent publication US8389545B2, “Quinolone M1 receptor positive allosteric modulators” (Merck, Sharp & Dohme, Corp., priority 2005, dated 2013)

Molecular target: T1, acetylcholine muscarinic M1 receptor (Homo sapiens, UniProt P11229)
T1 construct: expressed in transfected cells; host or cells: CHOnfat cells (CHO; Geneticin selection)
T1 sequence (P11229 1-460): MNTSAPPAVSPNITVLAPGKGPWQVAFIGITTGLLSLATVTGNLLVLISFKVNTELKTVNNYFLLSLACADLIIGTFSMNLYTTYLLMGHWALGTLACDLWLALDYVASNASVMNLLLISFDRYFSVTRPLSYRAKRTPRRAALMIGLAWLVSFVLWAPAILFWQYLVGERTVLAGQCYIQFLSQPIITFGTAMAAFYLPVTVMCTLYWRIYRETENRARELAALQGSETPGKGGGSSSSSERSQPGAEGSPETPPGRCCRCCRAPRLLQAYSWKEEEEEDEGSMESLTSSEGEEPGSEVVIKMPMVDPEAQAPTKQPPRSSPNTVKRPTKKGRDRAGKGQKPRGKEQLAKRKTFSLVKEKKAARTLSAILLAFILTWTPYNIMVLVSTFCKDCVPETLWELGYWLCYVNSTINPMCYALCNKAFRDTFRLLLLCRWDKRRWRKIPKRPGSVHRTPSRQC
Assay: muscarinic FLIPR assay: intracellular calcium in CHOnfat/hM1 cells with EC20 acetylcholine
Type: cell-based
Details: FLIPR Ca2+, 4 min preincubation then EC20 acetylcholine (3 nM final)
Protocol: The assay studies the effect of one or several concentrations of test compounds on basal or acetylcholine-stimulated Ca^2+ levels using FLIPR.
Compounds are prepared and subjected to a preincubation period of 4 min. Thereafter, a single EC20 concentration of acetylcholine is added to each well (3 nM final). The intracellular Ca^2+ level of each sample is measured and compared to an acetylcholine control to determine any modulatory activity.
Cells: CHOnfat/hM1, hM2, hM3 or hM4 cells are plated 24 hr before the assay at a density of 18,000 cells/well (100 μL) in a 384 well plate. CHOnfat/hM1 and CHOnfat/hM3 Growth Medium: 90% DMEM (Hi Glucose); 10% HI FBS; 2 mM L-glutamine; 0.1 mM NEAA; Pen-Strep; and 1 mg/ml Geneticin, are added. For M2Gqi5CHOnfat and M4Gqi5CHOnfat cells, an additional 600 ug/ml hygromycin is added.
Equipment: 384 well plate, 120 μL addition plate; 96-well Whatman 2 ml Uniplate Incubator, 37° C., 5% CO2; Skatron EMBLA-384 Plate Washer; Multimek Pipetting System; Genesis Freedom 200 System; Mosquito System; Temo Nanolitre Pipetting System; and FLIPR^384 Fluorometric Imaging Plate Reader System are used.
Buffers. Assay Buffer: Hanks Balanced Salt Solution, with 20 mM Hepes, 2.5 mM Probenecid (Sigma P-8761) first dissolved in 1N NaOH, 1% Bovine Serum Albumin (Sigma A-9647). Dye Loading Buffer: Assay Buffer plus 1% Fetal Bovine Serum and Fluo-4AM/Pluronic Acid Mixture. 2 mM Fluo-4AM ester stock in DMSO (Molecular Probes F-14202) Concentration of 2 uM in buffer for a final concentration of 1 μM in Assay. 20% Pluronic Acid Solution stock, with concentration of 0.04% in Buffer, 0.02% in Assay.
65 μL of 2 mM Fluo-4AM are mixed with 130 μL of 20% Pluronic Acid. The resulting solution and 650 μL FBS is added to the assay buffer for a total volume of 65 mL. Positive Controls: 4-Br-A23187: 10 mM in DMSO; final concentration 10 μM. Acetylcholine: 10 mM in water, working stock at both 20 uM and 30 uM in assay buffer, final concentration of 10 μM. This is used to check the maximum stimulation of the CHOK1/hM1 cells. 20 uM (2×) acetylcholine is added in the preincubation part of the assay, and the 30 uM (3×) stock is added in the second part. (EC20) Acetylcholine: 10 mM in water, working stock of 9 nM (3×), and final concentration in assay is 3 nM. This is used after the preincubation with test compounds. Addition of the EC20 Acetylcholine to each well with a test compound will ascertain any modulator activity. 24 wells contain 3 nM Acetylcholine alone as a control.
Determining Activity of Putative Compounds: Screening Plate: Compounds are titrated in 96-well plates (columns 2-11), 100% DMSO, started at a concentration of 15 mM (150× stock concentration), and 3-fold serial dilutions using Genesis Freedom200 System. Four 96-well plates are combined into a 384-well plate using Mosquito Nanolitre Pipetting System by transferring 1 ul of serial diluted compounds to each well, and 1 mM acetylcholine (100× stock concentration) were added as a control. Using Temo, 49 μl assay buffer is added to each well of the 384-well plate right before assay.
In a 96-well Whatman 2 ml Uniplate, 9 nM Acetylcholine (3×) is pipetted into wells corresponding to the screening compounds, and into control wells. The 30 uM acetylcholine control (3×) is added into control wells, and the 3× agonist plate is transferred into a 384 well plate. Cells are washed three times with 100 μL of buffer, leaving […] of buffer in each well. Using Multimek, 30 μL of Dye Loading Buffer is added into each well and incubated at 37° C., 5% CO2 for up to one hr.
After 60 min, the cells are washed three times with 100 μL of buffer, leaving 30 μL of buffer in each well. The cell plate, screening plate, and agonist addition plates are placed on the platform in the FLIPR and the door closed. A signal test to check background fluorescence and basal fluorescence signal is performed. Laser intensity is adjusted if necessary. […]

Compound	EC50
O=C(O)c1cn(Cc2c(F)cccc2F)c2c(F)ccc(F)c2c1=O [Example 4, 1-(2,6-difluorobenzyl)-5,8-difluoro-4-oxo-1,4-dihydroquinoline-3-carboxylic acid]	0.614 µM
COc1ccc(Cn2cc(C(=O)O)c(=O)c3cccc(F)c32)cc1 [Example 5, 8-fluoro-1-(4-methoxybenzyl)-4-oxo-1,4-dihydroquinoline-3-carboxylic acid]	1.15 µM
COc1ccc(Cn2cc(C(=O)O)c(=O)c3cccc(F)c32)cc1C(F)(F)F [Example 44, 8-fluoro-1-[4-methoxy-3-(trifluoromethyl)benzyl]-4-oxo-1,4-dihydroquinoline-3-carboxylic acid]	0.793 µM
O=C(O)c1cn(Cc2ccc(O)cc2)c2ccccc2c1=O [Example 71, 1-(4-hydroxybenzyl)-4-oxo-1,4-dihydroquinoline-3-carboxylic acid]	0.389 µM

Further lines, results first:

EC50	Compound
4.2 µM	COc1cccc(Cn2cc(C(=O)O)c(=O)c3c(F)ccc(F)c32)c1 [Example 2, 5,8-difluoro-1-(3-methoxybenzyl)-4-oxo-1,4-dihydroquinoline-3-carboxylic acid]
0.975 µM	O=C(O)c1cn(Cc2ccc(C(F)(F)F)cc2)c2c(F)cccc2c1=O [Example 52, 8-fluoro-4-oxo-1-[4-(trifluoromethyl)benzyl]-1,4-dihydroquinoline-3-carboxylic acid]
